# From paper PMC10082729, “First study on in vitro antiviral and virucidal effects of flavonoids against feline infectious peritonitis virus at the early stage of infection” (Veterinary World, 2023)
# Where two headings read alike, the source gives them in different places.
# Columns and labels:
# FIPV 3CL^pro = conditions: cited from earlier work
# [1] = test system: Herpes simplex virus type 1; conditions: in vitro; cited from earlier work
# Coxsackievirus B3 [2] = test system: Coxsackievirus B3; set-up: method as in PMID 24963331; conditions: cited from earlier work
# Coxsackievirus B3 [3] = test system: Coxsackievirus B3; set-up: method as in PMID 24963331; conditions: in vitro; cited from earlier work
# FIPV [4] = assay: Post-viral entry assay, FIPV-infected cells by IPMA; conditions: for selectivity ratio at 24 h: cat
# CRFK cells [5] = conditions: cat, 24 h
# in vitro = conditions: cat
# Influenza A virus = conditions: in vitro; cited from earlier work
# Marek’s disease virus = test system: Marek’s disease virus; set-up: method as in PMID 33008383; conditions: at 20 µg/mL; cited from earlier work
# SARS-CoV-2 = conditions: in vitro, cited from earlier work
# [6] = test system: African swine fever virus; conditions: in vitro, at 10 µg/mL; cited from earlier work
# Hepatitis B virus = conditions: in vitro; cited from earlier work
# SARS-CoV-2 3CL^pro = test system: SARS-CoV-2 3CL^pro; set-up: method as in PMID 32963564; conditions: in vitro; cited from earlier work
# CRFK cells [7] = assay: Cell cytotoxicity and cell viability (MTS assay); conditions: 24 h
# Zika virus = test system: Zika virus; set-up: method as in PMID 27344138; conditions: in vitro; cited from earlier work
# FIPV [8] = assay: Penetration assay; format: cell-based, feline infectious peritonitis virus; conditions: FIPV bound at 4°C 1 h, compound added at 37°C, 24 h
# FIPV [9] = assay: Pre-compound assay; format: cell-based, feline infectious peritonitis virus; conditions: cells pretreated 2 h, then FIPV 2 h, 24-HPI, crystal violet and IPMA
# FIPV [10] = assay: Attachment assay; format: cell-based, feline infectious peritonitis virus; conditions: co-adsorbed at 4°C for 1 h, 24-HPI
# Method: (§1) Crandell–Rees feline kidney cells were seeded into a 96-well plate at 1.8 × 10^4 cells/well and cultured in MEM containing 7% FBS. Pre-compound, attachment, penetration, post-viral entry, and virucidal assays were performed based on each step of viral infection. […] For the antiviral activity assay, FIPV was used at 50 TCID50/well in all experiments. Crandell–Rees feline kidney cells were inoculated with FIPV and treated with 0.1% DMSO as vehicle control. GC376 (TargetMol®, Wellesley Hills, MA, USA) was used as the FIPV-specific drug control. Three experiments were performed in duplicate wells for each compound.
# To determine whether the compounds could interfere with virus binding to the host cells, CRFK cells in a 96-well plate were prechilled at 4°C for 1 h, and cotreated with the FIPV inoculum and the diluted compounds or controls at 4°C for 1 h to allow virus binding, but not entry to the host cells.
# For initial screening, FIPV infection was determined using crystal violet staining for all antiviral assays. Briefly, the supernatants were removed from the compound-treated and FIPV-infected CRFK and control cells, and the cells were fixed with cold methanol at room temperature (25°C) for 30 min. […] Five to ten images of positive FIPV-infected cells were recorded at a magnification of 100× using a phase-contrast inverted microscope (Olympus IX73). […]
# Enterovirus A71 = test system: Enterovirus A71; set-up: method as in PMID 19537794; conditions: in vitro, at 10 µM; cited from earlier work
# [11] = test system: Human immunodeficiency virus reverse transcriptase; set-up: method as in PMID 21730371; conditions: in vitro; cited from earlier work
# FIPV [12] = assay: Post-viral entry assay, viral load by RT-qPCR; format: cell-based, feline infectious peritonitis virus; conditions: Alphacoronavirus 1, read-out: inhibition of viral copy numbers
# Method: as §1
# To determine whether the compounds could inhibit viral replication and translation in the host cells after infection, CRFK cells were inoculated with FIPV at 37°C for 2 h for viral adsorption.
# Intracellular and extracellular FIPV from infected CRFK cells was determined using RT-qPCR, as described. […] A standard curve of viral copy numbers was generated from the plasmid containing the FIPV 3′UTR sequence by 10-fold serially diluting the plasmid from […] plasmid molecules/μL and using it for viral load quantification. Quantitative polymerase chain reaction was performed from two biological replicates and three independent experiments were performed.
# [13] = test system: Foot-and-mouth disease virus; conditions: in vitro, post-viral entry; cited from earlier work
# FIPV [14] = assay: Cotreatment (virucidal) assay, IPMA; format: cell-based, feline infectious peritonitis virus; conditions: Alphacoronavirus 1, FIPV and compound coincubated with cells at 37°C for 2 h, 24 h
# FMDV 3C^pro = conditions: cited from earlier work
# [15] = test system: Foot-and-mouth disease virus; conditions: virus and compound cotreated before incubating with cells; read-out: EC50 (virucidal, cotreatment); cited from earlier work
# FIPV [16] = assay: Time-of-addition (ToA) assay, RT-qPCR; format: cell-based, feline infectious peritonitis virus
# FIPV [17] = assay: Virucidal effect at different time points, TCID50 titration; format: cell-based, feline infectious peritonitis virus; conditions: 75 μM, direct incubation with FIPV at 37°C, compared with untreated control
# Method: Feline infectious peritonitis virus inoculum at 50 TCID50/mL was directly incubated at the maximum concentrations of the compounds that were non-cytotoxic at 37°C in a 1.5 mL microcentrifuge tube for 0, 15, 30, 60, and 120 min. After the indicated incubation, the mixtures of virus and compounds were immediately subjected to viral titration according to Reed and Muench’s method. Viral titers in compound-treated wells were compared with the untreated control.
# SARS-CoV-2 RdRp = conditions: in vitro; cited from earlier work
# [18] = test system: SARS-CoV 3a channel protein; conditions: in vitro; cited from earlier work
# [19] = post-viral entry, FIPV 50 TCID50/well in CRFK cells, 24-HPI, IPMA
compound,measurement,setting,value
COc1cc(O)c2c(=O)cc(-c3ccc(O)c(O)c3)oc2c1 [7-methylluteolin],IC50,FIPV 3CL^pro,28.5 ± 4.2 µM
O=c1cc(-c2ccc(O)c(-c3c(O)cc(O)c4c(=O)cc(-c5ccc(O)cc5)oc34)c2)oc2cc(O)cc(O)c12 [Amentoflavone],EC50,[1],11.1 to 28.2 µM
same,IC50 (virucidal),Coxsackievirus B3 [2],19 to 41 µg/mL
same,EC50,Coxsackievirus B3 [3],25 µM
same,EC50,"FIPV [4]; Alphacoronavirus 1, CRFK",144.1 ± 0.01 µM
same,EC90,"FIPV [4]; Alphacoronavirus 1, CRFK",242.9 ± 2.4 µM
same,selectivity ratio at 24 h,FIPV [4],1.37
same,CC10,CRFK cells [5],155.50 ± 2.19 µM
same,CC50 at 24 h,in vitro; CC50,197 ± 2.29 µM
O=c1cc(-c2ccc(O)cc2)oc2cc(O)cc(O)c12 [Apigenin],EC50,Influenza A virus,5 to 20 µM
same,CC50 at 24 h,in vitro; CC50,22.2 µM
O=C(O)[C@H]1O[C@@H](Oc2cc3oc(-c4ccccc4)cc(=O)c3c(O)c2O)[C@H](O)[C@@H](O)[C@@H]1O [Baicalin],virucidal effect,Marek’s disease virus,Virucidal effect
same,EC50,SARS-CoV-2,8 to 9 µM
same,CC50 at 24 h,in vitro; CC50,> 200 µM
COc1ccc(-c2cc(=O)c3c(O)cc(O[C@@H]4O[C@H](CO[C@@H]5O[C@@H](C)[C@H](O)[C@@H](O)[C@H]5O)[C@@H](O)[C@H](O)[C@H]4O)cc3o2)cc1O [Diosmin],inhibition,[6],African swine fever virus (in vitro: 40% inhibition at 10 µg/mL)
same,CC50 at 24 h,in vitro; CC50,> 200 µM
O=C(O[C@@H]1Cc2c(O)cc(O)cc2O[C@@H]1c1cc(O)c(O)c(O)c1)c1cc(O)c(O)c(O)c1 [Epigallocatechin gallate],EC50,Hepatitis B virus,< 10 µM
same,IC50,SARS-CoV-2 3CL^pro,7.58 µg/mL
same,CC10,CRFK cells [7],84.98 ± 1.93 µM
same,CC50,CRFK cells [7],282.2 ± 0.12 µM
same,Selective index CC50/EC50,"FIPV [4]; post-viral entry, CRFK cells",3.57
same,EC50,FIPV [4]; [19],79.07 ± 0.01 µM
same,EC90,FIPV [4]; [19],196.5 ± 1.96 µM
same,EC50,Zika virus,21.4 µM
CC(C)C[C@H](NC(=O)OCc1ccccc1)C(=O)N[C@@H](C[C@@H]1CCNC1=O)C(O)S(=O)(=O)[O-].[Na+] (some centres unmarked) [GC376],effect on FIPV penetration,FIPV [8],inhibited FIPV replication at high concentrations of up to 50 μM
same,cell protection (prophylactic) effect,FIPV [9],did not possess the prophylactic and virus attachment effects
same,effect on FIPV binding (attachment),FIPV [10],did not possess the prophylactic and virus attachment effects
O=C(O[C@@H]1Cc2c(O)cc(O)cc2O[C@H]1c1cc(O)c(O)c(O)c1)c1cc(O)c(O)c(O)c1 [Gallocatechin Gallate],virus reduction,Enterovirus A71,56%
same,EC50,[11],3.5 µM
same,CC50 at 24 h,in vitro,> 200 µM
COc1ccc([C@@H]2CC(=O)c3c(O)cc(O[C@@H]4O[C@H](CO[C@@H]5O[C@@H](C)[C@H](O)[C@@H](O)[C@H]5O)[C@@H](O)[C@H](O)[C@H]4O)cc3O2)cc1O [Hesperidin],viral titer reduction,Influenza A virus,Influenza A virus (in vitro: viral titer reduction at 3 log10 TCID50/0.1 mL)
COc1ccc(-c2cc(=O)c3c(O)cc(O)c(-c4cc(-c5cc(=O)c6c(O)cc(O)cc6o5)ccc4OC)c3o2)cc1 [Isoginkgetin],EC50,SARS-CoV-2; infected Vero cells,22.8 µM
same,inhibition at 10 µM,FIPV [12],> 90%
same,EC50,[13],1.93 ± 0.21 µM
same,CC10,CRFK cells [7],77.43 ± 2.52 µM
same,EC50,FIPV [14],40.6 ± 1.5 µM
same,IC50,FMDV 3C^pro,39 µM
same,EC50,[15],2.01 ± 0.07 µM
same,EC50,"FIPV [4]; Alphacoronavirus 1, CRFK",4.77 ± 0.09 µM
same,EC90,"FIPV [4]; Alphacoronavirus 1, CRFK",28.8 ± 1.46 µM
same,selectivity ratio at 24 h,"FIPV [4]; Selective index CC50/EC50, post-viral entry, CRFK cells",41.8
same,time of addition of maximal efficiency,"FIPV [16]; 28.82 μM, harvested at 10-HPI, RT-qPCR",2–4 HPI
same,effect on FIPV,"FIPV [16]; added at 0-HPI, 28.82 μM, RT-qPCR at 10-HPI",major inhibitory effect
same,time of addition at which FIPV replication is inhibited,"FIPV [16]; compound at EC90, harvested at 10-HPI, RT-qPCR",0–6 HPI
same,CC50 at 24 h,in vitro,199.4 ± 0.33 µM
same,"viability at 24 h, 75 µM",in vitro,≥ 90%
same,decrease of viral titer,FIPV [17]; 60 min,2 log10 TCID50/mL
same,decrease of viral titer,FIPV [17]; 120 min,1.89 log10 TCID50/mL
O=c1c(-c2ccc(O)cc2)coc2c([C@@H]3O[C@H](CO)[C@@H](O)[C@H](O)[C@H]3O)c(O)ccc12 [Puerarin],EC50,Influenza A virus,52.1 µM
same,CC50 at 24 h,in vitro; CC50,195 µM
O=c1c(O)c(-c2ccc(O)c(O)c2)oc2cc(O)cc(O)c12 [Quercetin],CC50 at 24 h,in vitro,> 200 µM
same,IC50,SARS-CoV-2 RdRp,6.9 µM
C[C@@H]1O[C@@H](OC[C@H]2O[C@@H](Oc3c(-c4ccc(O)c(O)c4)oc4cc(O)cc(O)c4c3=O)[C@H](O)[C@@H](O)[C@@H]2O)[C@H](O)[C@H](O)[C@H]1O [Rutin],CC50 at 24 h,in vitro; CC50,> 200 µM
O=C(/C=C/c1ccc(O)cc1)OC[C@H]1O[C@@H](Oc2c(-c3ccc(O)cc3)oc3cc(O)cc(O)c3c2=O)[C@H](O)[C@@H](O)[C@@H]1O [Tiliroside],IC50,[18],20 µM
same,CC50 at 24 h,in vitro,65.2 µM
Epicatechin-3-O-gallate,EC50,[1],4 µM
